In patent US4517196A, “Tricyclic thiazolyloxamic acids and their derivatives, their preparation, and therapeutic agents containing these compounds” (BASF Aktiengesellschaft, priority 1981, dated 1985):

Tested on: passive cutaneous anaphylaxis
Experiment: antiallergic action, passive cutaneous anaphylaxis (PCA) in rats, oral
Assay type: in vivo, rat
Settings: for ED50: Rattus norvegicus, read-out: Inhibition of PCA, ED 50%; for Inhibition of PCA, relative effectiveness: relative to comparative compound V1 (1.00); for times more effective than the comparative compound V1: administered orally
Protocol: The antiallergic action was tested against passive cutaneous anaphylaxis in rats.
Narcotized male rats (weighing from 100 to 140 g) are sensitized by administration of an intradermal injection (shaved skin) of 0.1 ml of an ovalbumin antiserum. After a sensitization period of about 48 hours, treatment is carried out by administering various dosages (10 animals/dose) of the test substances intraperitoneally or orally. 15 and 20 minutes after treatment, an anitgen/Evans blue mixture (10 mg/kg of ovalbumin in 2% strength Evans blue solution) is injected intravenously into the experimental animals. 30 minutes later, the animals are killed, and the back skin is peeled off and the diameter of the circular blue area on the inner surface is measured. The size of the colored spot in untreated control animals may be standardized. Antiallergic substances reduce the diameter of the colored spots, their reduction being dependent on the dose. The ED 50% is the dose which produces a 50% reduction in the diameter of the colored spot in comparison with control animals which have not been treated with the drug.

[1] = oral administration, rats, dose giving 50% reduction in diameter of colored spot vs untreated controls

SMILES | ED50 [1] | Inhibition of PCA, relative effectiveness (oral administration, rats) | times more effective than the comparative compound V1 | Inhibition of PCA, ED 50% [1] | oral effectiveness in doses up to 100 mg/kg (oral, doses up to 100 mg/kg, commercial preparation Intal)
CCOC(=O)C(=O)Nc1nc2c(s1)Cc1ccccc1-2 [Example 1, Ethyl N-(indeno[1,2-d]thiazol-2-yl)-oxamate] | 1.48 mg/kg | 5.81 | – | – | –
CCOC(=O)C(=O)Nc1nc2c(s1)C(=O)c1ccccc1-2 [Example 2, Ethyl N-(8-oxoindeno[1,2-d]thiazol-2-yl)-oxamate] | 1.95 mg/kg | 4.41 | 4.4 times | – | –
O=C(O)C(=O)Nc1nc2c(s1)Cc1ccccc1-2 [Example 4, N-(Indeno[1,2-d]thiazol-2-yl)-oxamic acid] | 1.3 mg/kg | 6.61 | 6.6 times | – | –
O=C(O)C(=O)Nc1nc2ccccc2s1 [Example V1, N-benzothiazol-2-yl oxamate, reference compound] | – | 1.00 | – | > 8.60 mg/kg | –
O=C(O)c1cc(=O)c2c(OCC(O)COc3cccc4oc(C(=O)O)cc(=O)c34)cccc2o1 [cromolyn, reference compound] | 100 mg/kg | – | – | – | orally ineffective
